Results published in patent publication US20260207795A1, “SMALL MOLECULE TRACERS BINDING TO ALPHA-SYNUCLEIN AGGREGATES AND THEIR USES” (Fudan University, priority 2021, published 2026).

What was measured:
[1] = biological target: T1, human α-synuclein aggregates (Homo sapiens, UniProt P37840); test: Binding affinity of the compounds to α-synuclein aggregates (fluorescence method); conditions: fluorescence saturation binding; α-synuclein aggregates (PFFs) 3 μM; room temperature, 1 hour
T1 construct: made in house; host or cells: E. coli BL21 (DE3)
Protocol: α-synuclein monomers were prepared into a buffer solution containing 1×PBS, where the final protein concentration was 100 μM ([…]), and incubated in a 1000 rpm shaker at 37° C. for 7 days to obtain α-synuclein aggregates. The initial and final concentrations of the monomer protein were determined by the BCA method.
The prepared α-synuclein aggregates, also known as preformed fibrils (PFFs), are used for protein affinity testing, construction of cell model, and testing of the invention.
10 mM mother solution of DMSO was prepared from 1 mg of the compound, then diluted to 20 μM with PBS, and made gradient dilution 7 times (3× each dilution); 30 μL of test compound was added to the 384-well plate, following the experimental group was added to 30 μL α-synuclein aggregates (3 μM), and the control group was added to the same amount of PBS. After the 384-well plate was incubated shaking at 50 rpm at room temperature for 1 hour, the plate was taken out to detect the maximum absorption and emission wavelengths of the compound with an ELISA Microplate Reader, and the fluorescence values were detected at these wavelengths, too. The fluorescence changes in different concentrations of compounds were calculated using the experimental group data minus the control group data, and the protein-binding affinity of compounds was obtained using the Saturation binding module of GraphPad Prism.
The binding affinity of the Formula I compound to α-synuclein aggregates is determined by the above method, and the dissociation equilibrium constant Kd is shown in Table 1.

[2] = Blood-brain barrier permeability test in rat; type: in vivo; conditions: brain homogenate / blood supernatant after centrifugation, intravenous, SD rats, 5 mg/kg tail vein, 20 min after administration, LC-MS/MS, >0.3 indicates good blood-brain barrier penetration, read-out: brain/blood ratio
Protocol: The compound of the invention is injected into a rat tail vein to determine the blood-brain barrier permeability in vivo according to the following method.
Dissolve the tested compound in DMSO, and add castor oil and PBS for dilution (DMSO:castor oil:PBS=1:1:8). SD rats were weighed and given 5 mg/kg in the tail vein. 500 μL of blood was taken 20 min after administration after anesthetized with isoflurane. Cardiac perfusion was performed with 200 mL PBS and stopped until the organ faded, following brain tissue was got out and washed with PBS.
After centrifuging the extracted blood at 9000 rpm for 5 min, 200 μL supernatant was taken, and added 800 μL methanol. After centrifuging at 14000 rpm for 10 min, the supernatant was taken and filtered through a 0.22 μm filter membrane and stored at −80° C. for use. 2 mL PBS and 2 mL methanol were added to about 0.5 g of brain tissue to make a tissue homogenization, and then 1 mL homogenate was taken out and centrifuged at 14,000 rpm for 10 min after 2 mL methanol was added, 1 mL supernatant was taken through 0.22 μm filter membrane and stored at −80° C. for use. The concentration of compounds in the above supernatant of blood and brain homogenate were checked by LC-MS/MS, respectively.
A brain/blood ratio of <0.1, 0.1-0.3, or >0.3 indicates blood-brain barrier penetration of weak, moderate, or good, respectively. […] Since all the compounds of the invention have similar structures and their clogP values are mostly between 1.0 and 3.0, it can be predicted that other compounds of the invention should also have acceptable blood-brain barrier permeability.

[3] = biological target: T2, α-synuclein aggregates in SH-SY5Y cells (Homo sapiens, UniProt P37840); test: Immunofluorescence imaging of SH-SY5Y cell model with α-synuclein aggregates (PFFs); type: cell-based; conditions: co-staining with α-synuclein antibody, compound 1 h at room temperature
T2 construct: made in house; host or cells: E. coli BL21 (DE3)
Protocol: SH-SY5Y cells belong to the SK—N—SH cell line and are a kind of human neuroblastoma cells. These cells can express a variety of important proteins of neurons, such as dopaminergic transporters, dopamine hydroxylase, and tyrosine hydroxylase, so they are often used in the study of the mechanism and pharmacodynamic evaluation of Parkinson's disease. The prepared α-synuclein aggregates (PFFs) are co-incubated with SH-SY5Y cells and endocytosed into cells after 12 hours through endocytosis. The cells were further incubated with α-synuclein antibodies and compounds successively, and observed by microscope after washing with PBS. The detailed operations are as follows.
SH-SY5Y cells were cultured in a high-glucose DMEM medium (containing 10% Gibco fetal bovine serum). After 5 times of resuscitation and passage, the cell state tended to be stable. Then PFFs was added to the medium and fluorescent staining was performed after 48 h. After sucked the cell culture solution and cleaned with PBS three times, 0.3% Triton X-100 was added and incubated for 10 min. After washing with PBS, 10% goat serum was added and closed for 1 h; After cleaning with PBS, primary antibody (1:1000, 610786, BD Biosciences) was added and incubated at 4° C. overnight. After cleaning with PBS, secondary antibodies (1:1000, goat-anti-rabbit Alex Fluor 594, and goat-anti-mouse Alex Fluor 488, Invitrogen) were added and incubated at room temperature for 2 h. Finally, the compound of the invention is added and incubated at room temperature for 1 h. After cleaning with PBS, the tablet is sealed and photographed by a laser confocal microscope.

[4] = system: Aβ plaques and Tau neurofibrillary tangles; test: Fluorescence staining of brain slices from patients with Alzheimer's disease (AD); design: species or system human; conditions: AD patient superior temporal gyrus sections, compound 30 μM
Protocol: (§1) Compound I-15 was diluted to 30 μM with PBS solution containing 50% EtOH, following incubated with the fresh frozen brain sections at room temperature for 30 minutes, then washed with 50% ethanol solution for 5 minutes and ultra-pure water twice for 3 minutes each time in sequence. After the sections were buried with an embedding agent (VECTASHIELD H-1000, Vector Laboratories), images of the lesion accumulation area on the sections were obtained by fluorescence microscopy. Analysis software (Image J) was used to quantify the fluorescence radiance of both the lesion area and the area of the non-forming lesion (background) to evaluate binding selectivity.
The dewaxed brain tissue was fixed in a 10% neutral buffer of formalin solution, embedded with paraffin, and then sliced with a thickness of 6 μm. The staining method is the same as the above method for DLB patients.

[5] = biological target: T3, Lewy bodies and Lewy neurites (α-synuclein lesions) (Homo sapiens, UniProt P37840); test: Fluorescence staining of brain slices from patients of dementia with Lewy body (DLB)
T3 construct: from tissue; host or cells: human DLB patient amygdala, fresh frozen sections
Protocol: Brain slices from patients of dementia with Lewy bodies were taken from the amygdala of a deceased person in stage 2 of dementia with Lewy bodies. Frozen sections of the amygdala with rich α-synuclein were performed with a thickness of 20 μm.
as §1

Row | Kd [1] [µM] | Kp at 20 min [2] | SMILES | binding to α-synuclein aggregates in SH-SY5Y cells (immunofluorescence, FIG. 1) [3] | other results
1 | 0.1 to 0.2 | – | CN(C)c1ccc(/C=C/c2nc3cc(F)ccc3n(Cc3ccccn3)c2=O)cc1 [I-1] | – | –
2 | 0.5 to 1 | – | CN(C)c1ccc(/C=C/c2nc3cc(F)ccc3n(Cc3cccnc3)c2=O)cc1 [I-2] | – | –
3 | 0.5 to 1 | – | CN(C)c1ccc(/C=C/c2nc3cc(F)ccc3n(Cc3ccncc3)c2=O)cc1 [I-3] | – | –
4 | 0.2 to 0.5 | ≥ 1 | CN(C)c1ccc(/C=C/c2nc3cc(OCCF)ccc3n(Cc3ccccn3)c2=O)cc1 [I-6] | excellent binding affinity and specificity | –
5 | 0.5 to 1 | – | CN(C)c1ccc(/C=C/c2nc3cc(OCCF)ccc3n(Cc3cccnc3)c2=O)cc1 [I-9] | – | –
6 | 0.2 to 0.5 | ≥ 1 | CN(C)c1ccc(/C=C/c2nc3cc(OCCF)ccc3n(Cc3ccncc3)c2=O)cc1 [I-12] | excellent binding affinity and specificity | –
7 | 0.1 to 0.2 | ≥ 1 | CN(C)c1ncc(/C=C/c2nc3cc(OCCF)ccc3n(Cc3ccccn3)c2=O)s1 [I-15] | excellent binding affinity and specificity | binding affinity to Aβ and Tau histology (FIG. 3) [4]: very weak; binding to Tau neurofibrillary filaments (FIG. 3) [4]: did not bind; binding affinity to α-synuclein lesions (staining of Lewy bodies and Lewy neurites, FIG. 2) ([5]; DLB patient amygdala frozen sections, compound 30 μM, 30 minutes): strong binding affinity; binding to α-synuclein pathological tissue compared with Aβ and Tau pathological tissue (selectivity) ([5]; DLB versus AD brain slices, FIG. 2 and FIG. 3): significantly stronger
